This note sets out measurements from PubChem BioAssay AID1421 (Emory University Molecular Libraries Screening Center, 2008).

The source made the active and inactive calls. The rule behind the calls is not given here.

The target in one assay is Prostaglandin E2 receptor EP2 subtype (Homo sapiens) (UniProt P43116). In words: compounds shifting PGE2 potency at EP2 – cell-based, human EP2, PGE2 EC50 shift, dose response (AID 1421). As to conditions: EP2-expressing cells, PGE2 EC50 shift by compound.
Chain of Prostaglandin E2 receptor EP2 subtype (Homo sapiens) (P43116 whole entry, looked up): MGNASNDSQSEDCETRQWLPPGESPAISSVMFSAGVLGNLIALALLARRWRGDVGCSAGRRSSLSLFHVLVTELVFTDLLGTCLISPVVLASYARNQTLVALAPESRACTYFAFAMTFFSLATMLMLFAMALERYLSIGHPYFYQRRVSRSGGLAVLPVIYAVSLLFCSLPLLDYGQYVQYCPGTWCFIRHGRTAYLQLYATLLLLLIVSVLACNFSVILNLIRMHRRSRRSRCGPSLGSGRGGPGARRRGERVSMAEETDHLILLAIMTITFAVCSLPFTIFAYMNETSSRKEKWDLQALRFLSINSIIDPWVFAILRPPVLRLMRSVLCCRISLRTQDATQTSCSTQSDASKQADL
As to `Cc1cccc(C)c1OC(=O)C(c1ccccc1)c1ccccc1`, the result was active.

`Cc1noc(C)c1CSc1nc2ccccc2c(=O)n1-c1ccccc1`: the outcome was active.

With `CCCCCc1ccc(-c2ccc(=O)[nH]n2)cc1`, the outcome was active.

On to `CC(C)OC(=O)c1c(NC(=O)c2ccco2)sc2c1CCCCC2`, for which the result was active.

Regarding `Cc1ccc(Cn2c(=O)n(Cc3ccco3)c(=O)c3ccccc32)cc1`, the result was active.

Consider `CN1CCCN(C(=O)Cc2c(Cl)cccc2Cl)c2nc3ccccc3nc21`, for which the result was active.

The assay is the same for the next values; noted with them: EP2-expressing cells, PGE2 EC50 shift by compound; measured here: PGE2 EC50 at 6.7 uM compound.
With `Cc1ccc(S(=O)(=O)N2c3ccccc3OCC2C(C)(C)C)cc1` (configuration not stated), the PGE2 EC50 with compound was found to be 2.69 nM.

In the case of `Cc1ccc(C)n1-n1c(C)nc2scc(-c3cccs3)c2c1=O`, the PGE2 EC50 with compound stood at 1.02 nM.

On to `CN(c1ccccc1)c1nc(N2CCCC2)nc(-n2ccnc2)n1`, for which the PGE2 EC50 with compound was found to be 0.79 nM.

For the molecule `Cc1cc2cc(CN(Cc3nnnn3C3CCCCC3)CC3CCCO3)c(=O)[nH]c2cc1C` (configuration not stated), the PGE2 EC50 with compound was determined as 0.97 nM.

Take `CCOc1cccc(CNc2ccc(O)cc2)c1OCc1ccc(Cl)cc1`: the PGE2 EC50 with compound came to 1.41 nM.

Consider `CCCCNCC(=O)Nc1sc(C)c(C)c1C(=O)OCC`, for which the PGE2 EC50 with compound amounted to 2.33 nM.

As to `COC(=O)c1sccc1NC(=O)c1cc2c(s1)CCCC2`, the PGE2 EC50 with compound is 1.01 nM.

For `C=CCc1cc(C=O)cc(OCC)c1OCc1ccc(Cl)cc1`, the PGE2 EC50 with compound was found to be 1.29 nM.

As for `Cc1ccc(N=N/C(=C\O)C(=O)c2ccc(Cl)cc2)cc1`, the PGE2 EC50 with compound was determined as 0.87 nM.

Regarding `S=c1[nH]cc(-c2ccccc2)n1-c1ccccc1`, the PGE2 EC50 with compound amounted to 1.48 nM.

Regarding `COc1cc2c(cc1OC)-c1cc(Nc3ccc4c(c3)OCCO4)nc(=O)n1CC2`, the PGE2 EC50 with compound came to 2.5 nM.

Turning to `Cc1ccc(-n2cc(-c3ccccc3)c3c(N4CCOCC4)ncnc32)cc1`, the PGE2 EC50 with compound was determined as 1.99 nM.

As to `CCCC1=C(C(=O)OCC)C(c2cccs2)C(C#N)=C(N)O1` (configuration not stated), the PGE2 EC50 with compound is 0.82 nM.

Turning to `COc1ccc(N2CCN(c3nc4c(c(=O)n(C)c(=O)n4C)n3Cc3ccccc3)CC2)cc1`, the PGE2 EC50 with compound was 0.92 nM.

For `Cc1cccc(C)c1OC(=O)C(c1ccccc1)c1ccccc1`, the PGE2 EC50 with compound is 2.47 nM.

With `Cc1noc(C)c1CSc1nc2ccccc2c(=O)n1-c1ccccc1`, the PGE2 EC50 with compound was 1.3 nM.

As for `CS(=O)(=O)N(Cc1ccccc1)c1ccccc1C(=O)Nc1ccccc1C(=O)NCc1ccco1`, the PGE2 EC50 with compound stood at 3.04 nM.

For the molecule `O=C(O)CCCN1C(=O)/C(=C\c2ccco2)SC1=S`, the PGE2 EC50 with compound is 1.07 nM.

With `CCCCCc1ccc(-c2ccc(=O)[nH]n2)cc1`, the PGE2 EC50 with compound came out at 1.44 nM.

Take `O=C(COC(=O)c1ccccc1)Nc1ccccc1Sc1ccccc1`: the PGE2 EC50 with compound is 0.83 nM.

Regarding `O=c1c2c(n3cnnc3n1C1CCCCC1)-c1ccccc1CC21CCCCC1`, the PGE2 EC50 with compound stood at 0.33 nM.

On to `COc1ccc(C)c(Cn2c(-c3nonc3N)nc3ccccc32)c1`, for which the PGE2 EC50 with compound turned out to be 0.86 nM.

On to `O=C(O)c1ccc(CNCc2cccc(Cl)c2Cl)cc1`, for which the PGE2 EC50 with compound amounted to 0.88 nM.

On to `CCCCC(=O)Nc1sc2c(c1C(=O)OCC)CCC(C=O)=C2Cl`, for which the PGE2 EC50 with compound came out at 0.91 nM.

In the case of `CC/C(=C\C1CCCCC1)C(NP(=O)(c1ccccc1)c1ccccc1)c1ccccc1` (configuration not stated), the PGE2 EC50 with compound was determined as 1.01 nM.

`COc1ccccc1C(=O)NC(=S)Nc1cc(C(=O)O)ccc1C`: the PGE2 EC50 with compound stood at 1.18 nM.

`CCCC(=O)Nc1ccccc1Sc1ncnc2scc(-c3ccccc3)c12`: the PGE2 EC50 with compound came out at 1.07 nM.

Consider `O=C(c1cc2sccc2n1Cc1ccc(F)cc1)N1CCCc2ccccc21`, for which the PGE2 EC50 with compound came out at 1.56 nM.

As to `C=CCOc1nc(-c2ccncc2)nc2ccccc12`, the PGE2 EC50 with compound worked out at 2.48 nM.

On to `CCOC(=O)c1c(NC(=O)COC(=O)Cn2cnc3ccccc32)sc2c1CCC(C)C2` (configuration not stated), for which the PGE2 EC50 with compound was 0.79 nM.

Regarding `CCOC(=O)c1c(NC(=O)CC(C)C)sc(C(C)=O)c1C`, the PGE2 EC50 with compound turned out to be 1.25 nM.

Take `CCCCCCC/C=C\CCCCCCCCC(=O)O`: the PGE2 EC50 with compound came to 1.56 nM.

For the molecule `COc1cc(CN2CCC(C(=O)N3CCN(c4ccccc4F)CC3)CC2)cc(OC)c1OC`, the PGE2 EC50 with compound was found to be 0.75 nM.

As to `CC(C)c1cc(=O)oc2c3c4c(cc12)CCCN4CCC3`, the PGE2 EC50 with compound worked out at 1.15 nM.

As to `c1ccc(-c2noc(-c3cccc4ccccc34)n2)cc1`, the PGE2 EC50 with compound was determined as 1.18 nM.

Consider `S=c1[nH]nc(CSc2nc3ccccc3s2)n1Cc1ccccc1`, for which the PGE2 EC50 with compound was 0.72 nM.

Regarding `N#Cc1sc2nc(N3CCCCC3)c3c(c2c1N)CCCC3`, the PGE2 EC50 with compound was 1.33 nM.

Take `COc1ccc(Cc2n[nH]c(=S)n2Cc2ccccc2)cc1Cl`: the PGE2 EC50 with compound amounted to 1.41 nM.

In the case of `CC(C)OC(=O)c1c(NC(=O)c2ccco2)sc2c1CCCCC2`, the PGE2 EC50 with compound is 0.74 nM.

Turning to `Cc1nc2ccccc2c(-c2ccccc2)c1C(=O)c1ccccc1`, the PGE2 EC50 with compound was 2.55 nM.

For `COc1ccc(-c2nnc3ccc(SCC(=O)Nc4nc5ccccc5s4)nn23)cc1OC`, the PGE2 EC50 with compound worked out at 0.67 nM.

Regarding `CCOP(=O)(OCC)c1nc(-c2ccccc2)oc1NCc1ccccc1`, the PGE2 EC50 with compound is 1.04 nM.

As to `Cc1ccc(-c2nnn(CC(=O)N(Cc3cccs3)C(C(=O)NC3CCCC3)c3ccncc3)n2)cc1` (configuration not stated), the PGE2 EC50 with compound was determined as 0.72 nM.

`COc1ccc2cc(CN(Cc3ccco3)C(c3nnnn3C3CCCCC3)C(C)C)c(=O)[nH]c2c1` (configuration not stated): the PGE2 EC50 with compound came out at 0.76 nM.

Regarding `C=CCC(=O)OCCCCCCOc1ccc(C(=O)O)cc1`, the PGE2 EC50 with compound is 0.58 nM.

Turning to `COc1cc(NC(=S)NC(=O)c2cc(C)cc(C)c2)ccc1NC(=O)c1cccs1`, the PGE2 EC50 with compound was 2.54 nM.

For `CCOC(=O)c1c(C)nc2ccccc2c1-c1ccccc1`, the PGE2 EC50 with compound came out at 1.31 nM.

Take `O=c1c2c(nc3n1CCCCC3)-c1ccccc1CC21CCCCC1`: the PGE2 EC50 with compound came out at 1.25 nM.

For `OC1(c2ccc(Cl)cc2)CN(c2ccccc2)C2=[N+]1CCS2` (configuration not stated), the PGE2 EC50 with compound worked out at 1.16 nM.

Take `COc1cc(OC)c(OC)cc1CNCCc1ccc(OC)c(OC)c1`: the PGE2 EC50 with compound is 1.3 nM.

On to `Cc1cc2c3c(c1)C1(SCC(=O)N1c1ccc(F)cc1)C(=O)N3C(C)(C)CC2C` (configuration not stated), for which the PGE2 EC50 with compound came out at 2.59 nM.

Regarding `O=c1cc(N2CCCCC2)c(-c2ccccc2)nn1Cc1cccc(F)c1`, the PGE2 EC50 with compound worked out at 0.33 nM.

For `CN(/N=C/C=C/c1ccccc1)C1=NS(=O)(=O)c2ccccc21`, the PGE2 EC50 with compound turned out to be 0.68 nM.

As for `CC1(C)C2CCC1(C)C(OC(=O)CC(=O)O)C2` (configuration not stated), the PGE2 EC50 with compound worked out at 0.72 nM.

`O=C(Nc1ccccc1N1CCCCC1)c1ccc(Cl)c([N+](=O)[O-])c1`: the PGE2 EC50 with compound came out at 1.23 nM.

Take `COC[C@H]1OC(=O)c2coc3c2[C@@]1(C)C1=C(C3=O)C2CCC(=O)[C@@]2(C)C[C@H]1OC(C)=O` (some centres not stated): the PGE2 EC50 with compound turned out to be 0.84 nM.

Consider `CC(C)Cc1nc2sc3c(=O)[nH]cnc3c2c2c1CCC2`, for which the PGE2 EC50 with compound came to 1.48 nM.

For the molecule `Cn1nc(C(F)(F)F)c(/C=N/OC(=O)c2ccccc2)c1Sc1ccc(Cl)cc1`, the PGE2 EC50 with compound turned out to be 1.31 nM.

Regarding `CCOc1ccc(OCC)c(NC(=O)CN2CCN(c3ccc(C)cc3C)CC2)c1`, the PGE2 EC50 with compound is 0.88 nM.

As to `COc1ccc(-c2cc(-c3n[nH]c(=S)n3-c3cccc4ccccc34)[nH]n2)cc1`, the PGE2 EC50 with compound was 1.74 nM.

As to `Cc1cccc(Oc2nc(-c3ccccc3)cc(C)c2S(C)(=O)=O)c1C`, the PGE2 EC50 with compound was 2.56 nM.

`C=CCn1c(=O)c2c3c(sc2n2c(Nc4ccc(OC)cc4)nnc12)CCCC3`: the PGE2 EC50 with compound came out at 0.77 nM.

In the case of `COc1cccc(/C=N/c2oc(-c3ccccc3)cc2C#N)c1O`, the PGE2 EC50 with compound was 1.17 nM.

As to `CCC1(C)Cc2ccccc2-c2nc3n(c(=O)c21)CCS3` (configuration not stated), the PGE2 EC50 with compound came to 1.37 nM.

For the molecule `CC(=O)N1c2ccccc2C(C)CC12CCCCC2` (configuration not stated), the PGE2 EC50 with compound was 2.48 nM.

As for `Cc1ccc(-c2nn(-c3ccccc3)cc2CN(Cc2ccccc2)C(=O)c2ccco2)o1`, the PGE2 EC50 with compound is 0.7 nM.

Regarding `CSc1ccccc1NC(=O)COc1ccc(Cl)cc1C`, the PGE2 EC50 with compound is 1.06 nM.

`Cc1oc(-c2ccccc2)cc1C(=O)Nc1cccc(/C=C/C(=O)O)c1`: the PGE2 EC50 with compound is 2.37 nM.

As to `O=C(O)c1cccc(NN=C2c3ccccc3-c3ccccc32)c1`, the PGE2 EC50 with compound came to 0.8 nM.

With `CC1C(c2ccccc2)N(C)C(c2ccccc2)C(C)C1(O)C#Cc1ccccc1` (configuration not stated), the PGE2 EC50 with compound is 0.32 nM.

For the molecule `CCc1nc(N2CCC(C)CC2)c2oc3ccccc3c2n1`, the PGE2 EC50 with compound was found to be 1.23 nM.

Consider `Cc1ccc(Cn2c(=O)n(Cc3ccco3)c(=O)c3ccccc32)cc1`, for which the PGE2 EC50 with compound stood at 0.78 nM.

As to `COC(=O)CC1C(C)(C)C(OC(C)=O)[C@@H]2[C@@H](OC(C)=O)[C@]34O[C@@]2(O)[C@]1(C)C3CC[C@]1(C)C4=CC(=O)O[C@H]1c1ccoc1` (some centres not stated), the PGE2 EC50 with compound was found to be 0.74 nM.

For the molecule `Fc1ccc(-c2cc(-c3ccccc3)nc(-n3cccn3)n2)cc1`, the PGE2 EC50 with compound is 1.63 nM.

Take `CCOC(=O)Cn1c(=S)[nH]c2c(oc3ccc(Cl)cc32)c1=O`: the PGE2 EC50 with compound turned out to be 2.77 nM.

For the molecule `CC(=O)CSc1nc(-c2cccs2)c(C#N)c(=O)[nH]1`, the PGE2 EC50 with compound worked out at 2.81 nM.

As for `CC1Cc2ccccc2N1C(=O)CSc1nnc(Cc2ccccc2)n1CCc1ccccc1` (configuration not stated), the PGE2 EC50 with compound came to 1.14 nM.

On to `O=C1CC(O)(c2ccccc2)C(c2ccccc2)=C1c1ccccc1` (configuration not stated), for which the PGE2 EC50 with compound amounted to 0.87 nM.

In the case of `O=S(=O)(Nc1ccccc1N1CCCCC1)c1ccc(Cl)s1`, the PGE2 EC50 with compound turned out to be 1.49 nM.

`Cc1nc(SCCC(=O)O)c2ccccc2n1`: the PGE2 EC50 with compound is 2.93 nM.

For the molecule `S=c1[nH]nc(C2CCCCC2)n1Cc1ccccc1`, the PGE2 EC50 with compound was determined as 1.02 nM.

For `Cc1nc(N2N=C(c3ccc(Cl)cc3)CC2c2ccco2)sc1C(=O)N(C)C` (configuration not stated), the PGE2 EC50 with compound came out at 2.73 nM.

Take `COC(=O)CSc1nc(-c2ccccc2)nc2ccccc12`: the PGE2 EC50 with compound came out at 1.02 nM.

`CC1=CC2C(C(C)C)CCC(C)(O)C2CC1` (configuration not stated): the PGE2 EC50 with compound was 0.68 nM.

For `Cc1ccc(C2CC2c2n[nH]c(=S)n2-c2ccc(C)cc2)cc1` (configuration not stated), the PGE2 EC50 with compound was found to be 1.12 nM.

`O=C1/C(=C/c2cccnc2)SC(=NCc2ccccc2)N1Cc1ccccc1`: the PGE2 EC50 with compound was found to be 1.29 nM.

Regarding `CN1CCCN(C(=O)Cc2c(Cl)cccc2Cl)c2nc3ccccc3nc21`, the PGE2 EC50 with compound was 0.9 nM.

As to `CCCOC(=O)c1ccc(NC(=O)c2cn(CC)c3nc(C)ccc3c2=O)cc1`, the PGE2 EC50 with compound amounted to 1.57 nM.

Take `N#CN=C1SCCS1`: the PGE2 EC50 with compound was 0.92 nM.

In the case of `c1ccc(C2=Nc3ccccc3NC(c3ccccc3)C2)cc1` (configuration not stated), the PGE2 EC50 with compound was found to be 2.58 nM.

As for `CCOC(=O)c1oc2ccccc2c1NC(=O)c1ccccc1OC`, the PGE2 EC50 with compound worked out at 1.25 nM.
